Holding throughout (assay type): physicochemical
Data set [1] is described as follows: Shelf life stability program of bupropion HBr, 25° C./60% RH, 3 and 6 months, HPLC. To be noted: 25° C./60% RH, 3 and 6 months. Put shortly: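 Three batches of bupropion HBr stored in closed containers at 25° C.+2° C./60%+5% RH. Sampled at time 0, 3 and 6 months, each analysed under two HPLC conditions for 6 impurities or impurity groups; degradation product amounts compared to time 0.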

Data set [2] is described as follows: Accelerated stability study of bupropion HBr, closed bottles, 40° C./75% RH, 3 and 6 months, HPLC. To be noted: 40° C./75% RH. As to the method: The samples were prepared in closed bottles and placed in the stability chamber. HPLC analysis was conducted on the samples prior to placing them in the stability chamber (time 0), and after 3 months and 6 months. The amounts of the main degradation products present at time 0 were compared with those amounts present after 3 months and 6 months. […] For each sample tested, at each time period, two different HPLC assays were run. The first assay labelled chromatographic purity A, measured the percentage of three impurities 3′chloropropiophenone, 3′-Chloro-2-bromopropiophenone and 3′-Chlorobenzoic acid. The second assay, labelled chromatographic purity B, measured the percentage of 2-N-(tert-Butyl)-aminopropiophenone, a single unknown impurity and the total unknown impurities.

A short description of data set [3]: pH of 0.5% aqueous solution of bupropion salts. The protocol: The eight salts were first evaluated by HPLC, KF, pH and DSC for purity, water content, aqueous pH and possible polymorphs.
The salts were analysed by DSC (at 10° C./min from 30° C. up to 400° C.) and the pH (aq. 0.5%), and the moisture content by KF were also measured. The TGA was performed on the HCl, maleate, tosylate and HBr salts.

For the molecule `Br.CC(NC(C)(C)C)C(=O)c1cccc(Cl)c1` (stereo not shown) [Bupropion HBr, bupropion hydrobromide], the “Other impurities, trend” value in data set [1] was “did not show an increasing trend over time”. Also, the “Impurity 3′-chloropropiophenone, trend” value was “increased slightly over time” in data set [1] (three batches); “slight increase” in data set [2] (3 and 6 months, three batches). In addition, the “Total percentage of impurities, change” value in data set [2] (3-month and 6-month) was “did not change”. Besides, the “Stability under the accelerated stability test conditions” value in data set [2] (6 months) is “highly stable”. Further, the “pH (aq. 0.5%), Original (Initial APIs)” value in data set [3] (0.5% aqueous solution, original API salts) was found to be 5.92. Also, in data set [3] (Table 3, supplier API), the “pH (aq. 0.5%)” value came to 5.92.

Source of the values: patent US7884136B2, “Modified-release formulations of a bupropion salt” (Biovail Laboratories International S.R.L., priority 2005, dated 2011).
